# Assay results taken from patent publication US20240300943A1, “NOVEL SALTS OF HETEROCYCLIC COMPOUND AS PROTEIN KINASE INHIBITOR AND USES THEREOF” (HK INNO.N CORPORATION, priority 2021, published 2024).
# Legend:
# [1] = tested on: JAK1, 2; assay: In vitro cell assay, JAK1, 2 (STAT phosphorylation ELISA); format: cell-based; conditions: read-out: IC50, Cell Biology JAK1, 2
# Description: UT-7/EPO cell is an erythroleukemic cell line which expresses an EPO receptor, and is frequently used in many previous studies as a model to assess EPO-induced STAT5 phosphorylation mediated by JAK1 and JAK2 activity. Accordingly, in order to evaluate the activity of JAK1 and JAK2, UT-7/EPO cells were prepared.
# The test material was dissolved in DMSO, prepared at 10 mM, divided by 20 μL each, and stored at −20° C.
# • EPO: 2000 U/0.5 mL of stock was divided by 50 μL each and stored under refrigeration. • IL-2: 200 μg/ml of stock was prepared, divided by 5 μL each, and stored, and then treated at 2 ng/ml. (IL-2 1 μg/ml=13000 U/ml) • IFN-alphaB2: […] of stock was diluted and used, and then treated to reach 30000 U/ml.
# • UT-7/EPO cell assay: MEM-alpha (Gibco, cat #12561-056) was prepared to contain 5% FBS and 1% P/S before use. • NK-92 cell assay: A preparation was made to contain HBSS, 1% FBS and 1% P/S before use. • U2OS cell assay: A preparation was made to contain HBSS, 1% FBS and 1% P/S before use.
# The cultured cells were centrifuged (1,000 rpm, 5 minutes) and washed with PBS. The size of cell lines and appropriate reaction concentration thereof were set and the cell lines were seeded in a 96-well plate at 1×10^5 to 10^6 cells/well (50 μL/well). […]
# [2] = molecular target: TYK2 (Homo sapiens, UniProt P29597); assay: ADP-Glo Tyk2 kinase assay; format: biochemical; conditions: read-out: IC50, In vitro enzyme TYK2
# Description: 10 mM of Compound 1 was diluted in DMSO to prepare samples at five concentrations (5,000 nM, 500 nM, 50 nM, 5 nM, and 0.5 nM). 10 mM of ATP was diluted at 1/40 in 1× kinase buffer to make a preparation. 1 mg/mL of Poly (Glu4, Tyr1) peptide was used as a stock solution. 100 ng/μL of Tyk2 enzyme was diluted at ½ in 1× kinase buffer to make a preparation. 1 μL of ATP, 1 μL of Poly (Glu4, Tyr1) peptide, and 1 μL of Compound 1 prepared as above were mixed, after which 2 μL of Tyk2 enzyme was finally added and reacted at 30° C. for 40 minutes. At this time, a tube without […] enzyme was prepared for a blank and a tube without Compound 1 was prepared as a positive control group together (a final concentration of samples was 1,000 nM, 100 nM, 10 nM, 1 nM, and 0.1 nM).
# Then, 5 μL of ADP-glo was added to each tube and reacted at 30° C. for 40 minutes, after which 10 μL of kinase detection reagent was added thereto and reacted at room temperature for 15 minutes. After 18 μL of the reactant was transferred to a 384 well plate, luminescence was measured using a plate reader.
# [3] = tested on: RBL-2H3 cells; assay: IL-4 secretion inhibitory activity in Basophil cells; format: cell-based; conditions: FIG. 8
# Description: RBL-2H3 cells were diluted in 10% FBS EMEM medium and divided in a 24-well plate to reach 1×10^5 cells/well. The cells were incubated in a 37° C. incubator for 18 hours or longer.
# The test material (Compound 1) was treated at each concentration (at a final concentration of 0, 0.1, 0.5 and 1 μM) under PMA (50 nmol/L) and A23187 (1 μmol/L) stimulation. The cells were incubated in a 37° C. incubator for 24 hours. Then, the reaction was terminated on ice, after the degree of IL-4 secretion in the culture supernatant was measured by IL-4 ELISA kit.
# [4] = tested on: DNCB-induced animal model (NC/Nga mice); assay: DNCB-induced atopic dermatitis model (PO); format: in vivo; conditions: twice a day for 28 days, FIGS. 17 to 19
# Description: A DNCB-induced animal model was prepared in substantially the same manner as the DNCB model (topical) in Experimental Example 6, except that the phosphate compound was orally administered, and the phosphate compound obtained according to Example 3 was administered. The phosphate compound was orally administered a total of 56 times twice a day for 28 days, and an administration interval was eight hours. The dosage (10 mL/kg) was calculated and determined based on the body weight measured on the day of administration, and intragastrically administered through the mouth of mice using a 1 ml syringe and a feeding needle. The control group was dosed with 0.5% methylcellulose (0.5% MC).
# Sequence of TYK2 (P29597 whole entry, species assumed): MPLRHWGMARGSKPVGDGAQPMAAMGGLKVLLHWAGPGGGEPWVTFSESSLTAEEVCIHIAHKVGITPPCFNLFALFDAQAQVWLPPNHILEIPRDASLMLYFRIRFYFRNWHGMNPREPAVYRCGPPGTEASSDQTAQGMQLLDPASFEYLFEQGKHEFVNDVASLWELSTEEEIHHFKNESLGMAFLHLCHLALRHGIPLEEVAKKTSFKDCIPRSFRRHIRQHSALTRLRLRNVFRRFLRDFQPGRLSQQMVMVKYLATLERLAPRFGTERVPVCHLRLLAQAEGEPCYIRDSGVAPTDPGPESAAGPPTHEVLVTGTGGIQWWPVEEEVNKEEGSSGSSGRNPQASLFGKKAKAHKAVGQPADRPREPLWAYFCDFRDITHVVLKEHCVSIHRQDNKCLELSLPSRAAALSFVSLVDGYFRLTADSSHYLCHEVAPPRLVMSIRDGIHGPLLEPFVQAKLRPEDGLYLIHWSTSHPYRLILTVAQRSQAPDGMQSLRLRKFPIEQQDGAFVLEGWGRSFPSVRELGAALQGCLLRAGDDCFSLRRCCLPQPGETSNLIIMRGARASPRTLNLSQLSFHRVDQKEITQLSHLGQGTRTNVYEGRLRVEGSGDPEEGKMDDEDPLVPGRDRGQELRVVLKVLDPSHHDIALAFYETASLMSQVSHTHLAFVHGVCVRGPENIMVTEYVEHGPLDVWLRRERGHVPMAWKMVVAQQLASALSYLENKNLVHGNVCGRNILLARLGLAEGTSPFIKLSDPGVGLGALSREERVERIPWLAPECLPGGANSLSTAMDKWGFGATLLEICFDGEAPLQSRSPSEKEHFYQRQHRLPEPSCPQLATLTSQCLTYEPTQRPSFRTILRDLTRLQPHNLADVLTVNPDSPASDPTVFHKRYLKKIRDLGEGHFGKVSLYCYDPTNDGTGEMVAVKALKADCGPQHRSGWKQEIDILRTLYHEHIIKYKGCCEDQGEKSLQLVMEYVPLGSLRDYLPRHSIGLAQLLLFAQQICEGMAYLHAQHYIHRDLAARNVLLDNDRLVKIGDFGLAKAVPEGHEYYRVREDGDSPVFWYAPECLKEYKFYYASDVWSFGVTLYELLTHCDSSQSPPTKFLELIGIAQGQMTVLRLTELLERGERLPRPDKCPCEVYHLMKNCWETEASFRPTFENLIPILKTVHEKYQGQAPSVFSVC
Structure (SMILES),IC50 [1] [nM],IC50 [2] [nM],IL-4 concentration compared to the negative control group (vehicle) ([3]; 0.5 μM and 1 μM),"IL-4 secretion ([3]; RBL-2H3 cells, PMA and A23187 stimulation, 24 hours)",Symptoms of atopic dermatitis [4]
"C[C@@H]1CN(C(=O)CC#N)CC=C1c1cc(NC(=O)C2CC2)nc2[nH]ccc12 [Compound 1, (S)—N-(4-(1-(2-cyanoacetyl)-3-methyl-1,2,3,6-tetrahydropyridin-4-yl)-1H-pyrrolo[2,3-b]pyridin-6-yl)cyclopropanecarboxamide]",18,22,remarkably reduced to almost ½ or more,inhibits IL-4 secretion,–
"C[C@@H]1CN(C(=O)CC#N)CC=C1c1cc(NC(=O)C2CC2)nc2[nH]ccc12 [Example 3, (S)—N-(4-(1-(2-cyanoacetyl)-3-methyl-1,2,3,6-tetrahydropyridin-4-yl)-1H-pyrrolo[2,3-b]pyridin-6-yl)cyclopropanecarboxamide]",–,–,–,–,ameliorates symptoms of atopic dermatitis
